# Test results published in ChEMBL document CHEMBL1145592, “Pleuromutilin derivatives having a purine ring. Part 1: new compounds with promising antibacterial activity against resistant Gram-positive pathogens” (2008).
# What was measured:
# Assay type in all cases: functional
# [1] = test system: Staphylococcus aureus; test: Antibacterial activity against methicillin-susceptible Staphylococcus aureus Smith
# [2] = test system: Staphylococcus aureus; test: Antibacterial activity against methicillin-resistant Staphylococcus aureus KMP9
# [3] = test system: Enterococcus faecium; test: Antibacterial activity against vancomycin-resistant Enterococcus faecium KU1778
# [4] = test system: Streptococcus pneumoniae; test: Antibacterial activity against penicillin-susceptible Streptococcus pneumoniae ATCC 49619
# [5] = test system: Streptococcus pneumoniae; test: Antibacterial activity against penicillin-resistant Streptococcus pneumoniae KT2524
# [6] = test system: Streptococcus pyogenes; test: Antibacterial activity against Streptococcus pyogenes ATCC 12344
# [7] = test system: Moraxella catarrhalis; test: Antibacterial activity against Moraxella catarrhalis K1209
# [8] = test system: Haemophilus influenzae; test: Antibacterial activity against Haemophilus influenzae TH13
# [9] = test system: Staphylococcus aureus; test: Antibacterial activity against methicillin-susceptible Staphylococcus aureus Smith infected iv dosed mouse 1 hr after inoculation
SMILES,MIC [1] [µg/mL],MIC [2] [µg/mL],MIC [3] [µg/mL],MIC [4] [µg/mL],MIC [5] [µg/mL],MIC [6] [µg/mL],MIC [7] [µg/mL],MIC [8] [µg/mL],ED50 [9] [mg/kg]
C=C[C@]1(C)C[C@@H](OC(=O)CSC2CCN(C(=O)CCn3cnc4c(N5CCC(N)C5)ncnc43)CC2)[C@]2(C)[C@H](C)CC[C@]3(CCC(=O)[C@@H]32)[C@@H](C)[C@@H]1O (stereo partly drawn),0.063,0.125,0.032,0.016,0.032,0.016,0.032,1,–
C=C[C@]1(C)C[C@@H](OC(=O)CSC2CCN(C(=O)CCn3cnc4c(N5CC[C@@H](N)C5)ncnc43)CC2)[C@]2(C)[C@H](C)CC[C@]3(CCC(=O)[C@@H]32)[C@@H](C)[C@@H]1O,0.063,0.25,0.063,0.016,0.016,0.008,0.063,1,1.01
C=C[C@]1(C)C[C@@H](OC(=O)CSC2CCN(C(=O)CCn3cnc4c(N5CCC(NC)CC5)nc(N)nc43)CC2)[C@]2(C)[C@H](C)CC[C@]3(CCC(=O)[C@@H]32)[C@@H](C)[C@@H]1O,0.5,2,0.5,0.125,0.25,0.063,0.25,2,1.41
C=C[C@]1(C)C[C@@H](OC(=O)CSC2CCN(C(=O)CCn3cnc4c(N5CCC(N(C)C)C5)nc(N)nc43)CC2)[C@]2(C)[C@H](C)CC[C@]3(CCC(=O)[C@@H]32)[C@@H](C)[C@@H]1O (stereo partly drawn),0.25,0.25,0.125,0.063,0.063,0.063,0.125,2,3
C=C[C@]1(C)C[C@@H](OC(=O)CSC2CCN(C(=O)CCn3cnc4c(N5CCC(CNC)C5)nc(N)nc43)CC2)[C@]2(C)[C@H](C)CC[C@]3(CCC(=O)[C@@H]32)[C@@H](C)[C@@H]1O (stereo partly drawn),0.5,4,0.5,0.125,0.25,0.032,0.25,4,1.01
C=C[C@]1(C)C[C@@H](OC(=O)CSC2CCN(C(=O)CCn3cnc4c(N5CCC(CN)C5)ncnc43)CC2)[C@]2(C)[C@H](C)CC[C@]3(CCC(=O)[C@@H]32)[C@@H](C)[C@@H]1O (stereo partly drawn),0.125,0.5,0.125,0.016,0.032,0.008,0.063,1,0.59
C=C[C@]1(C)C[C@@H](OC(=O)CSC2CCN(C(=O)CCn3cnc4c(N5CC(N)C5)nc(N)nc43)CC2)[C@]2(C)[C@H](C)CC[C@]3(CCC(=O)[C@@H]32)[C@@H](C)[C@@H]1O,0.5,1,0.25,0.063,0.125,0.063,0.25,1,3.04
CN[C@H](CC(C)C)C(=O)N[C@H]1C(=O)N[C@@H](CC(N)=O)C(=O)N[C@H]2C(=O)N[C@H]3C(=O)N[C@H](C(=O)N[C@H](C(=O)O)c4cc(O)cc(O)c4-c4cc3ccc4O)[C@H](O)c3ccc(c(Cl)c3)Oc3cc2cc(c3O[C@@H]2O[C@H](CO)[C@@H](O)[C@H](O)[C@H]2O[C@H]2C[C@](C)(N)[C@H](O)[C@H](C)O2)Oc2ccc(cc2Cl)[C@H]1O [VANCOMYCIN],–,–,> 128,0.25,0.5,–,64,> 128,0.88
C=C[C@]1(C)C[C@@H](OC(=O)CSC2CCN(C(=O)CCn3cnc4c(N5CCCC(N)C5)nc(N)nc43)CC2)[C@]2(C)[C@H](C)CC[C@]3(CCC(=O)[C@@H]32)[C@@H](C)[C@@H]1O (stereo partly drawn),0.25,1,0.25,0.063,0.063,0.032,0.125,2,2.21
C=C[C@]1(C)C[C@@H](OC(=O)CSC2CCN(C(=O)CCn3cnc4c(N5CCNCC5)ncnc43)CC2)[C@]2(C)[C@H](C)CC[C@]3(CCC(=O)[C@@H]32)[C@@H](C)[C@@H]1O,0.063,0.063,0.032,0.032,0.032,0.016,0.032,1,2.94
C=C[C@]1(C)C[C@@H](OC(=O)CSC2CCN(C(=O)CCn3cnc4c(N5CCC(CNC)C5)ncnc43)CC2)[C@]2(C)[C@H](C)CC[C@]3(CCC(=O)[C@@H]32)[C@@H](C)[C@@H]1O (stereo partly drawn),0.25,0.5,0.125,0.063,0.063,0.016,0.125,2,0.76
C=C[C@]1(C)C[C@@H](OC(=O)CSC2CCN(C(=O)CCn3cnc4c(N5CCC(NC)C5)ncnc43)CC2)[C@]2(C)[C@H](C)CC[C@]3(CCC(=O)[C@@H]32)[C@@H](C)[C@@H]1O (stereo partly drawn),0.063,0.25,0.032,0.016,0.032,0.016,0.063,2,1.61
C=C[C@]1(C)C[C@@H](OC(=O)CSC2CCN(C(=O)CCn3cnc4c(N5CCC(N)C5)nc(N)nc43)CC2)[C@]2(C)[C@H](C)CC[C@]3(CCC(=O)[C@@H]32)[C@@H](C)[C@@H]1O (stereo partly drawn),0.5,1,0.125,0.125,0.125,0.063,0.25,1,3.05
C=C[C@]1(C)C[C@@H](OC(=O)CSC2CCN(C(=O)CCn3cnc4c(N5CCN(C)CC5)nc(N)nc43)CC2)[C@]2(C)[C@H](C)CC[C@]3(CCC(=O)[C@@H]32)[C@@H](C)[C@@H]1O,0.125,0.125,0.125,0.125,0.063,0.063,0.063,2,8.83
C=C[C@]1(C)C[C@@H](OC(=O)CSC2CCN(C(=O)CCn3cnc4c(N5CCC(N)CC5)nc(N)nc43)CC2)[C@]2(C)[C@H](C)CC[C@]3(CCC(=O)[C@@H]32)[C@@H](C)[C@@H]1O,0.25,1,0.25,0.063,0.125,0.063,0.125,2,1.86
C=C[C@]1(C)C[C@@H](OC(=O)CSC2CCN(C(=O)CCn3cnc4c(N5CCC(NC)C5)nc(N)nc43)CC2)[C@]2(C)[C@H](C)CC[C@]3(CCC(=O)[C@@H]32)[C@@H](C)[C@@H]1O (stereo partly drawn),0.25,1,0.25,0.063,0.063,0.032,0.125,1,1.72
C=C[C@]1(C)C[C@@H](OC(=O)CSC2CCN(C(=O)CCn3cnc4c(N5CCC(N)CC5)ncnc43)CC2)[C@]2(C)[C@H](C)CC[C@]3(CCC(=O)[C@@H]32)[C@@H](C)[C@@H]1O,0.125,0.25,0.063,0.016,0.032,0.016,0.063,4,1.5
C=C[C@]1(C)C[C@@H](OC(=O)CSC2CCN(C(=O)CCn3cnc4c(N5CCNC(C)C5)nc(N)nc43)CC2)[C@]2(C)[C@H](C)CC[C@]3(CCC(=O)[C@@H]32)[C@@H](C)[C@@H]1O (stereo partly drawn),0.25,0.25,0.125,0.063,0.063,0.032,0.063,2,2.21
C=C[C@]1(C)C[C@@H](OC(=O)CSC2CCN(C(=O)CCn3cnc4c(N5CCC(CN)C5)nc(N)nc43)CC2)[C@]2(C)[C@H](C)CC[C@]3(CCC(=O)[C@@H]32)[C@@H](C)[C@@H]1O (stereo partly drawn),0.5,2,0.5,0.063,0.125,0.032,0.125,4,2.84
C=C[C@]1(C)C[C@@H](OC(=O)CSC2CCN(C(=O)CCn3cnc4c(N5CC[C@H](N)C5)ncnc43)CC2)[C@]2(C)[C@H](C)CC[C@]3(CCC(=O)[C@@H]32)[C@@H](C)[C@@H]1O,0.125,0.5,0.125,0.032,0.032,0.016,0.125,2,1.3
C=C[C@]1(C)C[C@@H](OC(=O)CSC2CCN(C(=O)CCn3cnc4c(N5CCC(N(C)C)CC5)nc(N)nc43)CC2)[C@]2(C)[C@H](C)CC[C@]3(CCC(=O)[C@@H]32)[C@@H](C)[C@@H]1O,0.25,0.25,0.125,0.063,0.063,0.032,0.063,2,1.72
C=C[C@]1(C)C[C@@H](OC(=O)CSC2CCN(C(=O)CCn3cnc4c(N5CCC(NC)CC5)ncnc43)CC2)[C@]2(C)[C@H](C)CC[C@]3(CCC(=O)[C@@H]32)[C@@H](C)[C@@H]1O,0.125,0.25,0.063,0.063,0.063,0.032,0.125,2,2.21
C=C[C@]1(C)C[C@@H](OC(=O)CSC2CCN(C(=O)CCn3cnc4c(N5CCCC(N)C5)ncnc43)CC2)[C@]2(C)[C@H](C)CC[C@]3(CCC(=O)[C@@H]32)[C@@H](C)[C@@H]1O (stereo partly drawn),0.125,0.125,0.032,0.016,0.032,0.016,0.032,1,2.21
